According to ChEMBL document CHEMBL1201862, “PubChem BioAssay data set” (2004):
Active and inactive are the calls of the source.

Biological target: Cytochrome P450 3A4 (Homo sapiens, UniProt P08684);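 also: CYP3A4 tested as one member of a cytochrome P450 panel screen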
Assay: not given
Settings: not given

Cytochrome P450 3A4, sequence (P08684 whole entry): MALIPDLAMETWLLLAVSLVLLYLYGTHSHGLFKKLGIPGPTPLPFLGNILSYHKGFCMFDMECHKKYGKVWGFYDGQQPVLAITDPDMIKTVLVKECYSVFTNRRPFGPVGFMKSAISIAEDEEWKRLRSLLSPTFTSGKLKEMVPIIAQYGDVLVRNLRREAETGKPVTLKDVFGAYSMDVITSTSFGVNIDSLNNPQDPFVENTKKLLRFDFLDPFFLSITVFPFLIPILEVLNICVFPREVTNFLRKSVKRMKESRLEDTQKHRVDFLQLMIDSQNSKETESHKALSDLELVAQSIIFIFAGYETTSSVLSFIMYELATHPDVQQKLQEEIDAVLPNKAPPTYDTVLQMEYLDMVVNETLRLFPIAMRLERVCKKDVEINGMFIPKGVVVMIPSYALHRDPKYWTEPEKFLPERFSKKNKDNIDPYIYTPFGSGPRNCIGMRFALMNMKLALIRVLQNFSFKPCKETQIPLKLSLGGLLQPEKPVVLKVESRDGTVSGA

| AC50 | Compound |
| --- | --- |
| 10 µM (inconclusive) | COc1ccc(-c2nc3cnc(OC)nc3n(CCc3ccccc3)c2=O)cc1 |
| 8.91 µM (inconclusive) | COc1ccc(-c2csc(-n3ncc(-c4cccs4)c3N)n2)cc1 |

Tested on: not listed separately
Assay: viability of HCT116 lacking mutant beta-catenin – cell-based, human colon tumor, dose response (AID 1045);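 also: HCT116 colon tumor cells with beta catenin knocked out; cells exposed to compound for 60 hours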
Format: functional
Settings: not given

| Compound | EC50 |
| --- | --- |
| CS(=O)(=O)N(CC(O)Cn1c2ccccc2c2ccccc21)c1cccc2ccccc12 (stereo not given) | 18.1 µM (active) |
| COc1ccc(N2C3=C(CC4=C2CC(C)(C)CC4=O)C(=O)CC(C)(C)C3)cc1 | 8.4 µM (active) |
| CCOC(=O)c1cccc(-n2c(-c3ccc(OC)cc3)nc3nc4ccccc4nc32)c1 | 13.5 µM (active) |
| CC(C)Cn1c(N)c(C(=O)CSc2ncnc3sc4c(c23)CCCC4)c(=O)n(C)c1=O | 12.2 µM (active) |
| Cc1[nH]c2ccc(-c3nnc(SCC(=O)c4ccc(F)cc4)o3)cc2c1C | 31.2 µM (active) |

Biological target: T1, Corticotropin-releasing factor receptor 2/Corticotropin-releasing factor-binding protein (Homo sapiens, UniProt P24387+Q13324)
T1 sequence (Q13324 whole entry): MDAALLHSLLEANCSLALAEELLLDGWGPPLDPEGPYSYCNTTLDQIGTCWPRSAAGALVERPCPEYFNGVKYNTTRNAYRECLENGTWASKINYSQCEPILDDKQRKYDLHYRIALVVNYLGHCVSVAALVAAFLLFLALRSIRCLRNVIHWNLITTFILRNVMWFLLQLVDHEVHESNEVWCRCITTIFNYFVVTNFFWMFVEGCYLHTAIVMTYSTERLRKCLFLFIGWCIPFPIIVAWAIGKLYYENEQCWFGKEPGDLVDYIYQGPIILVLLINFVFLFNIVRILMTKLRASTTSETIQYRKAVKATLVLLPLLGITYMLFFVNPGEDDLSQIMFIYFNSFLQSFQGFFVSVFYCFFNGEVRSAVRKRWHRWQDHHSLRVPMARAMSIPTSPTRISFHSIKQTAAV
T1 sequence (P24387 whole entry): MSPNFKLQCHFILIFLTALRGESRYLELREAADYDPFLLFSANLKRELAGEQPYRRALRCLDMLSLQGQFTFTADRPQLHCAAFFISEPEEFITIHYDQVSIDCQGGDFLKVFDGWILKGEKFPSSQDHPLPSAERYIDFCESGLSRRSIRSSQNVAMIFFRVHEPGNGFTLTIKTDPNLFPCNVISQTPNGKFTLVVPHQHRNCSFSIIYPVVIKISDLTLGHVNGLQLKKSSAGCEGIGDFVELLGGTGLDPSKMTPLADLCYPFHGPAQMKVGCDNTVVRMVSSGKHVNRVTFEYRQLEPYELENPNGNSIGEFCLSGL
Assay: activators of CRF receptor 2 with binding protein – uHTS hits, confirmation (AID 602473)
Format: functional
Settings: read-out: EC50_Mean

| Compound | EC50 |
| --- | --- |
| CN(C)S(=O)(=O)c1ccc(C(=O)OCC(=O)Nc2ccc(OC(F)F)cc2)cc1 | > 53 µM (inactive) |
| O=C(CSCc1ccccc1Br)NNC(=S)NCc1ccco1 | > 53 µM (inactive) |
| CC(=O)N1c2ccc(S(=O)(=O)N(C)CC(=O)NC3CCCC3)cc2CC1C (stereo not given) | > 53 µM (inactive) |
| O=C(O)c1cccc(NC(=NS(=O)(=O)c2ccccc2)c2ccccc2)c1 | > 53 µM (inactive) |

Results, then the compound that gave them:

| EC50 | Compound |
| --- | --- |
| > 53 µM (inactive) | c1ccc(C(c2nnnn2Cc2cccs2)N2CCN(C3CCCC3)CC2)cc1 (stereo not given) |
| > 53 µM (inactive) | NC(=O)CSc1nnnn1-c1ccc2c(c1)OCCO2 |
| > 53 µM (inactive) | C[C@H](CO)N1C[C@H](C)[C@@H](CN(C)C(=O)c2ccc3ccn(C)c3c2)OCc2cn(nn2)CCCC1=O |
| > 53 µM (inactive) | CN(c1ccccc1)S(=O)(=O)c1ccc2c(c1)oc(=O)n2C |

Biological target: T2, Heat shock factor protein 1 (Mus musculus, UniProt P38532)
T2 sequence (P38532 whole entry): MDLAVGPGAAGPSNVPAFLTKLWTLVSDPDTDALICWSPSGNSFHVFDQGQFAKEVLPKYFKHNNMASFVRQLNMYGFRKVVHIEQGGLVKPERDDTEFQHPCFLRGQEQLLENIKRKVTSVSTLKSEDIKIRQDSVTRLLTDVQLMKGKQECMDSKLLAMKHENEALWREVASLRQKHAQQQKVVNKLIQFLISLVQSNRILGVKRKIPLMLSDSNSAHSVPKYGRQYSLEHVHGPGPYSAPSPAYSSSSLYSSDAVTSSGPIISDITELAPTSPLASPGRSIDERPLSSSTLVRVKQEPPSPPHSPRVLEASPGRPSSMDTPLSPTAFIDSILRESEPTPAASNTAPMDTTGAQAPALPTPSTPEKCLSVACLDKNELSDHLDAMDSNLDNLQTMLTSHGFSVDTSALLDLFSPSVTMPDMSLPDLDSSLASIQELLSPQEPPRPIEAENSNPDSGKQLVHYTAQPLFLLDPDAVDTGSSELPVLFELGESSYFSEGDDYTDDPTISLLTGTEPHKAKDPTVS
Assay: decrease of HSF1-responsive luciferase luminescence – cell-based, NIH3T3, dose retest, confirmation (AID 2382);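 also: NIH3T3 fibroblasts with HSF1-driven luciferase reporter stressed by proteasome inhibitor MG132; luminescence from HSF1-driven luciferase expression after 8 hours of MG132 stress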
Format: functional
Settings: not given

| Compound | EC50 |
| --- | --- |
| Cc1[nH]c2ccc(-c3nnc(SCC(=O)c4ccc(F)cc4)o3)cc2c1C | > 195 µM (not active) |

Biological target: T1, Corticotropin-releasing factor receptor 2/Corticotropin-releasing factor-binding protein
Assay: Dose Response confirmation of uHTS hits for small molecule antagonists of the CRF-binding protein and CRF-R2 receptor complex.
Format: functional
Settings: read-out: IC50_Mean

| Compound | IC50 |
| --- | --- |
| CN(C)S(=O)(=O)c1ccc(C(=O)OCC(=O)Nc2ccc(OC(F)F)cc2)cc1 | > 47.1 µM (inactive) |
| O=C(CSCc1ccccc1Br)NNC(=S)NCc1ccco1 | > 47.1 µM (inactive) |
| CC(=O)N1c2ccc(S(=O)(=O)N(C)CC(=O)NC3CCCC3)cc2CC1C (stereo not given) | > 47.1 µM (inactive) |
| O=C(O)c1cccc(NC(=NS(=O)(=O)c2ccccc2)c2ccccc2)c1 | > 47.1 µM (inactive) |

Next, values leading:

| IC50 | Compound |
| --- | --- |
| > 47.1 µM (inactive) | c1ccc(C(c2nnnn2Cc2cccs2)N2CCN(C3CCCC3)CC2)cc1 (stereo not given) |
| > 47.1 µM (inactive) | NC(=O)CSc1nnnn1-c1ccc2c(c1)OCCO2 |
| > 47.1 µM (inactive) | C[C@H](CO)N1C[C@H](C)[C@@H](CN(C)C(=O)c2ccc3ccn(C)c3c2)OCc2cn(nn2)CCCC1=O |
| > 47.1 µM (inactive) | CN(c1ccccc1)S(=O)(=O)c1ccc2c(c1)oc(=O)n2C |

Biological target: T3, Cytochrome P450 1A2 (Homo sapiens, UniProt P05177);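 also: PubChem cytochrome P450 panel assay, CYP1A2 panel member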
T3 sequence (P05177 whole entry): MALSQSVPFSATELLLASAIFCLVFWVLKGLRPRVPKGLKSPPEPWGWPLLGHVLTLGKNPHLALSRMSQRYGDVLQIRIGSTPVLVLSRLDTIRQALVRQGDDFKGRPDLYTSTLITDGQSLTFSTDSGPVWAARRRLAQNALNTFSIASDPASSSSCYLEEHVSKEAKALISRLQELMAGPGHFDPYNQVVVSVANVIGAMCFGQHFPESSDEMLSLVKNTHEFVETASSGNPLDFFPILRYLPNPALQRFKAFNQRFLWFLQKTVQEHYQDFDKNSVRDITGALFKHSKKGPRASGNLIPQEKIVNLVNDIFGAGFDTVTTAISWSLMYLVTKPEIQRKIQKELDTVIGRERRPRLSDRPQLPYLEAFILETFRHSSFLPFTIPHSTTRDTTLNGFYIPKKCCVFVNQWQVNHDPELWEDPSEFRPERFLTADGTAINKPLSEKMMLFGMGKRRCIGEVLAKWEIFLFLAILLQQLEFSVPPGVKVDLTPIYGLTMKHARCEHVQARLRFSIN
Assay: not given
Settings: not given

| AC50 | Compound |
| --- | --- |
| 6.31 µM (inconclusive) | COc1ccc(-c2nc3cnc(OC)nc3n(CCc3ccccc3)c2=O)cc1 |
| 0.355 µM (inconclusive) | COc1ccc(-c2csc(-n3ncc(-c4cccs4)c3N)n2)cc1 |

Tested on: not listed separately
Assay: viability of PTEN-deleted HCT116 cells – cell-based, HCT116 PTEN knockout, dose response (AID 1047);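 also: HCT116 colon tumor cells with PTEN knocked out; cells exposed to compound for 60 hours before readout; potency for loss of cell viability measured by luminescence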
Format: functional
Settings: not given

| Compound | EC50 |
| --- | --- |
| CS(=O)(=O)N(CC(O)Cn1c2ccccc2c2ccccc21)c1cccc2ccccc12 (stereo not given) | 16 µM (active) |
| COc1ccc(N2C3=C(CC4=C2CC(C)(C)CC4=O)C(=O)CC(C)(C)C3)cc1 | 9.52 µM (active) |
| CCOC(=O)c1cccc(-n2c(-c3ccc(OC)cc3)nc3nc4ccccc4nc32)c1 | 15.3 µM (active) |
| CC(C)Cn1c(N)c(C(=O)CSc2ncnc3sc4c(c23)CCCC4)c(=O)n(C)c1=O | 12.1 µM (active) |
| Cc1[nH]c2ccc(-c3nnc(SCC(=O)c4ccc(F)cc4)o3)cc2c1C | 33.4 µM (active) |

Tested on: not listed separately
Assay: Trypanosoma cruzi growth suppression in host cells – NIH3T3 host cells, beta-gal luminescence, confirmation (AID 2044);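 also: intracellular parasites grown in NIH/3T3 mouse fibroblasts as host cells; luminescent beta-galactosidase reporter signal from transgenic T. cruzi replicating inside host cells; inhibitors lower the luminescence signal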
Format: functional, cell-based
Settings: not given

| Compound | EC50 |
| --- | --- |
| COc1ccc(N2C3=C(CC4=C2CC(C)(C)CC4=O)C(=O)CC(C)(C)C3)cc1 | 0.484 µM (active) |

Tested on: not listed separately
Assay: NIH3T3 cell viability loss – ATP luminescence, mouse fibroblasts, counter-screen, dose response (AID 2010);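 also: cells exposed to compound for about 90 hours before reading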
Format: functional, cell-based
Settings: not given

| Compound | EC50 |
| --- | --- |
| COc1ccc(N2C3=C(CC4=C2CC(C)(C)CC4=O)C(=O)CC(C)(C)C3)cc1 | 9.07 µM (active) |

Biological target: Cytochrome P450 2C9 (Homo sapiens, UniProt P11712)
Sequence (P11712 whole entry): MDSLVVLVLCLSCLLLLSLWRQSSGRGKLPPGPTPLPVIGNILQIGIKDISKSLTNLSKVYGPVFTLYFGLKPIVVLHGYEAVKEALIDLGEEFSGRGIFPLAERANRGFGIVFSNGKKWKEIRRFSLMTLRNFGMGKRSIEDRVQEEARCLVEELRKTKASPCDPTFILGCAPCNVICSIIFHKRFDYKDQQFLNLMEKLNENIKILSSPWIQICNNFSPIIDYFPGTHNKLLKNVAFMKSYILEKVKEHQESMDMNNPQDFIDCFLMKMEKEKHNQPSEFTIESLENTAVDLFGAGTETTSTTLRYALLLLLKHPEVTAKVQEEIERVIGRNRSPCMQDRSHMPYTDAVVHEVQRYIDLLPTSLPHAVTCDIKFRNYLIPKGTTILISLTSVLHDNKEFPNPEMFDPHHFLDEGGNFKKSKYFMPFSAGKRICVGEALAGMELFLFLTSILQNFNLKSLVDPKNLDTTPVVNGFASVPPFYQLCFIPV
Assay: not given
Settings: not given

| AC50 | Compound |
| --- | --- |
| 6.31 µM (inconclusive) | COc1ccc(-c2nc3cnc(OC)nc3n(CCc3ccccc3)c2=O)cc1 |
| 0.0501 µM (inconclusive) | COc1ccc(-c2csc(-n3ncc(-c4cccs4)c3N)n2)cc1 |
